Where a chain is given by its changes, count along the chain named.
Experiments:
Assay in all cases: Time-dependent IC50 COX inhibition assay
Format in all cases: biochemical, murine
mCOX-2^V349I = molecular target: T1, mCOX-2^V349I (Mus musculus, UniProt Q05769, V335I); conditions: 20 min pre-incubation, then 50 μM AA for 30 s
T1 construct: made in house; host or cells: Sf9 insect cells (baculovirus, pVL1393)
T1 sequence (Q05769 18-604 V335I): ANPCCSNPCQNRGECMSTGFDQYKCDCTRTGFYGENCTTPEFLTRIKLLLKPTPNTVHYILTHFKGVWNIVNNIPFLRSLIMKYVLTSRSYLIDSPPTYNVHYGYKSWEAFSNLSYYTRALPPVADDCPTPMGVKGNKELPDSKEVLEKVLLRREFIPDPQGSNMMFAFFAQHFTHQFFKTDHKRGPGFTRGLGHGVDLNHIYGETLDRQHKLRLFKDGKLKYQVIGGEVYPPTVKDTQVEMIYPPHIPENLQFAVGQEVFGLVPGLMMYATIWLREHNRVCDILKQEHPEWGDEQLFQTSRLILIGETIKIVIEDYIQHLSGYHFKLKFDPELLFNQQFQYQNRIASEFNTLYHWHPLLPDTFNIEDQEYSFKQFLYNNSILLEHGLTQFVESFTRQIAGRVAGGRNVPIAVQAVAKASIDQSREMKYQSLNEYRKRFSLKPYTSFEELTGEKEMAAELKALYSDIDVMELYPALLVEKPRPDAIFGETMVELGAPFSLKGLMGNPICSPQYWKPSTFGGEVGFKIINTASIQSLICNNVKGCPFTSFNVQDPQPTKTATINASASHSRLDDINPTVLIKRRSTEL
Description: (§1) These mutated genes were used to assemble baculoviral constructs for large-scale expression in Sf9 cells. Purification of the expressed COX-2 protein was performed through traditional cellular fractionation and classical column chromatography. Activity or inhibition assays were performed in 100 mM Tris-HCl buffer containing 500 μM phenol, with hematin-reconstituted protein. Quantification of cyclooxygenase activity was performed by monitoring substrate (arachidonate or oxygen) consumption in a thermostatted cuvette at 37° C. using a polarographic electrode with a 5300 oxygen monitor (Yellow Springs Instrument Co. Inc., Yellow Springs, Ohio, United States of America). All inhibitors and substrates were solubilized in dimethyl sulfoxide (DMSO). Activity or inhibition assays were performed in 100 mM Tris-HCl buffer containing 500 μM phenol, with hematin-reconstituted protein. Maximal reaction velocity data were obtained from the linear portion of the oxygen uptake curves, and the data were analyzed by nonlinear regression with Prism 4.0 (GraphPad Software, San Diego, Calif., United States of America).
(§2) Time-dependent inhibition reactions were performed by pre-incubating the inhibitor and enzyme for 17 minutes at 25° C., followed by 3 minutes at 37° C. prior to the addition of 50 μM [1-^14C]-AA for 30 seconds at 37° C. Assays were terminated and analyzed for substrate consumption by thin layer chromatography as previously described (Kalgutkar et al., 2000a).
(§3) Maximal reaction velocity data were obtained from the linear portion of the oxygen uptake curves, and the data were analyzed by nonlinear regression. Instantaneous inhibition assays were performed with substrate and inhibitor added prior the initiation of the reaction by addition of protein. Time-dependent screening assays were performed by pre-incubating the inhibitor and enzyme for 17 minutes at 25° C., followed by 3 minutes at 37° C. prior to the addition of 50 μM [1-^14C]-arachidonic acid (AA) for 30 seconds at 37° C.
(§4) Assays were terminated and analyzed for substrate consumption by thin layer chromatography. […] Time-dependent COX inhibition reactions were pre-incubated at 37° C. for varying lengths of time (0-30 minutes) with various concentrations of inhibitor. All reactions were performed with [1-^14C]-AA for 30 seconds at 37° C.; reactions were terminated and analyzed as described above.
(§5) The COX reaction was allowed to proceed for 30 seconds before termination.

mCOX-2^V349L = molecular target: T2, mCOX-2^V349L (Mus musculus, UniProt Q05769, V335L)
T2 construct: made in house; host or cells: Sf9 insect cells (baculovirus, pVL1393)
T2 sequence (Q05769 18-604 V335L): T1 sequence (Q05769 18-604 V335I) with I318L
Description: as §1, §2, §3, §4, §5

wild type mCOX-2 = molecular target: T3, wild type mCOX-2 (Mus musculus, UniProt Q05769); conditions: 20 min pre-incubation, then 50 μM AA for 30 s
T3 construct: made in house; host or cells: Sf9 insect cells (baculovirus, pVL1393)
T3 sequence (Q05769 18-604): T1 sequence (Q05769 18-604 V335I) with I318V
Description: as §1, §2, §3, §4, §5

SMILES: COc1ccc2c(c1)c(CC(=O)O)cn2C(=O)c1ccc(Cl)cc1 [DM-INDO, 2-Des-methylindomethacin]
- IC50 (mCOX-2^V349I): 3 µM
- inhibition in the time-dependent IC50 assay (mCOX-2^V349L): less than 20%
- IC50 (mCOX-2^V349L; 20 min pre-incubation, then 50 μM AA for 30 s): > 16 µM
- IC50 (wild type mCOX-2): 4 µM
